In patent US10106558B2, “Azolobenzazine compounds, compositions comprising these compounds and their use for controlling invertebrate pests” (BASF SE, priority 2015, dated 2018):
Read-outs that look alike come from different tables or passages of the source.

What was measured:
Type in all cases: in vivo
[1] = tested on: boll weevil (Anthonomus grandis); assay: Action on boll weevil, eggs on insect diet in 96-well microtiter plates; settings: 120 h, read-out: mortality in comparison with untreated controls
Experimental: Example B3: Action on Boll Weevil (Anthonomus grandis)
For evaluating control of boll weevil (Anthonomus grandis) the test unit consisted of 96-well-microtiter plates containing an insect diet and 5-10 A. grandis eggs.
(§1) The compounds were formulated using a solution containing 75% v/v water and 25% v/v DMSO. Different concentrations of formulated compounds were sprayed onto the insect diet at 5 μl, using a custom built micro atomizer, at two replications.
After application, microtiter plates were incubated at about 25±1° C. and about 75±5% relative humidity for 5 days. Egg and larval mortality was then visually assessed.

[2] = tested on: yellow fever mosquito (Aedes aegypti); assay: whole plant or invertebrate; settings: 48 h, larval mortality visually assessed after 2 days, read-out: mortality in comparison with untreated controls
Experimental: Example B1: Action on Yellow Fever Mosquito (Aedes aegypti)
For evaluating control of yellow fever mosquito (Aedes aegypti) the test unit consisted of 96-well-microtiter plates containing 200 μl of tap water per well and 5-15 freshly hatched A. aegypti larvae.
The active compounds were formulated using a solution containing 75% (v/v) water and 25% (v/v) DMSO. Different concentrations of formulated compounds or mixtures were sprayed onto the insect diet at 2.5 μl, using a custom built micro atomizer, at two replications.
After application, microtiter plates were incubated at 28+1° C., 80+5% RH for 2 days. Larval mortality was then visually assessed.

[3] = tested on: Mediterranean fruitfly (Ceratitis capitata); assay: Action on Mediterranean fruitfly, eggs on insect diet in microtiter plates; settings: 120 h, egg and larval mortality visually assessed after 5 days, read-out: mortality in comparison with untreated controls
Experimental: Example B5: Action on Mediterranean Fruitfly (Ceratitis capitata)
For evaluating control of Mediterranean fruitfly (Ceratitis capitata) the test unit consisted of microtiter plates containing an insect diet and 50-80 C. capitata eggs.
as §1
After application, microtiter plates were incubated at about […] and about 80+5% relative humidity for 5 days. Egg and larval mortality was then visually assessed.

[4] = tested on: green peach aphid (Myzus persicae) (mixed life stages); assay: Action on green peach aphid, liquid artificial diet under artificial membrane; settings: 72 h, read-out: mortality in comparison with untreated controls
Source text: Example B8: Action on Green Peach Aphid (Myzus persicae) (Mixed Life Stages)
For evaluating control of green peach aphid (Myzus persicae) through systemic means the test unit consisted of 96-well-microtiter plates containing liquid artificial diet under an artificial membrane.
The compounds were formulated using a solution containing 75% v/v water and 25% v/v DMSO. Different concentrations of formulated compounds were pipetted into the aphid diet, using a custom built pipetter, at two replications.
After application, 5-8 adult aphids were placed on the artificial membrane inside the microtiter plate wells. The aphids were then allowed to suck on the treated aphid diet and incubated at about 23±1° C. and about 50±5% relative humidity for 3 days. Aphid mortality and fecundity was then visually assessed.

[5] = tested on: Southern Armyworm (Spodoptera eridania), 2nd instar larvae; assay: Action on southern armyworm 2nd instar larvae, sprayed lima bean plants; settings: 96 h, 4 days after treatment, read-out: mortality in comparison with untreated controls
Experimental: Example B10: Action on Southern Armyworm (Spodoptera eridania), 2nd Instar Larvae
The active compounds were formulated by a Tecan liquid handler in 100% cyclohexanone as a 10,000 ppm solution supplied in tubes. The 10,000 ppm solution was serially diluted in 100% cyclohexanone to make interim solutions. These served as stock solutions for which final dilutions were made by the Tecan in 50% acetone:50% water (v/v) into 10 or 20 ml glass vials. A nonionic surfactant (Kinetic®) was included in the solution at a volume of 0.01% (v/v). The vials were then inserted into an automated electrostatic sprayer equipped with an atomizing nozzle for application to plants/insects.
Lima bean plants (variety Sieva) were grown 2 plants to a pot and selected for treatment at the 1st true leaf stage. Test solutions were sprayed onto the foliage by an automated electrostatic plant sprayer equipped with an atomizing spray nozzle. The plants were dried in the sprayer fume hood and then removed from the sprayer. Each pot was placed into perforated plastic bags with a zip closure. About 10 to 11 armyworm larvae were placed into the bag and the bags zipped closed. Test plants were maintained in a growth room at about 25° C. and about 20-40% relative humidity for 4 days, avoiding direct exposure to fluorescent light (24 hour photoperiod) to prevent trapping of heat inside the bags. Mortality and reduced feeding were assessed 4 days after treatment, compared to untreated control plants.

[6] = tested on: tobacco budworm (Heliothis virescens); assay: Action on tobacco budworm, eggs on insect diet in 96-well microtiter plates; settings: 120 h, egg and larval mortality visually assessed after 5 days, read-out: mortality in comparison with untreated controls
Experimental: Example B6: Action on Tobacco Budworm (Heliothis virescens)
For evaluating control of tobacco budworm (Heliothis virescens) the test unit consisted of 96-well-microtiter plates containing an insect diet and 15-25 H. virescens eggs.
The compounds were formulated using a solution containing 75% v/v water and 25% v/v DMSO. Different concentrations of formulated compounds were sprayed onto the insect diet at 10 μl, using a custom built micro atomizer, at two replications.
After application, microtiter plates were incubated at about 28±1° C. and about 80±5% relative humidity for 5 days. Egg and larval mortality was then visually assessed.

[7] = tested on: Orchid Thrips (Dichromothrips corbetti); assay: Action on orchid thrips, floral-immersion technique; settings: adult thrips, 72 hours after treatment, read-out: mortality in comparison with untreated controls
Experimental: Example B2: Action on Orchid Thrips (Dichromothrips Corbetti)
Dichromothrips corbettiadults used for bioassay were obtained from a colony maintained continuously under laboratory conditions. For testing purposes, the test compound is diluted in a 1:1 mixture of acetone:water (vol:vol), plus Kinetic® HV at a rate of 0.01% v/v.
Thrips potency of each compound was evaluated by using a floral-immersion technique. All petals of individual, intact orchid flowers were dipped into treatment solution and allowed to dry in Petri dishes. Treated petals were placed into individual re-sealable plastic along with about 20 adult thrips. All test arenas were held under continuous light and a temperature of about 28° C. for duration of the assay. After 3 days, the numbers of live thrips were counted on each petal. The percent mortality was recorded 72 hours after treatment.

[8] = tested on: Diamond Back Moth (Plutella xylostella); assay: Action on diamond back moth, dipped cabbage leaves; settings: 3rd instar larvae, 72 hours after treatment, read-out: mortality in comparison with untreated controls
Experimental: Example B9: Action on Diamond Back Moth (Plutella xylostella)
The active compound is dissolved at the desired concentration in a mixture of 1:1 (vol:vol) distilled water:acetone. Surfactant (Kinetic® HV) is added at a rate of 0.01% (vol/vol). The test solution is prepared at the day of use.
Leaves of cabbage were dipped in test solution and air-dried. Treated leaves were placed in petri dishes lined with moist filter paper and inoculated with ten 3rd instar larvae. Mortality was recorded 72 hours after treatment. Feeding damages were also recorded using a scale of 0-100%.

[9] = tested on: Silverleaf Whitefly (Bemisia argentifolii) (Adults); assay: Action on silverleaf whitefly adults, sprayed cotton plants; settings: 72 h, 3 days after treatment, read-out: mortality in comparison with untreated controls
Experimental: Example B4: Action on Silverleaf Whitefly (Bemisia argentifolii) (Adults)
The active compounds were formulated by a Tecan liquid handler in 100% cyclohexanone as a 10,000 ppm solution supplied in tubes. The 10,000 ppm solution was serially diluted in 100% cyclohexanone to make interim solutions. These served as stock solutions for which final dilutions were made by the Tecan in 50% acetone:50% water (v/v) into 5 or 10 ml glass vials. A nonionic surfactant (Kinetic®) was included in the solution at a volume of 0.01% (v/v). The vials were then inserted into an automated electrostatic sprayer equipped with an atomizing nozzle for application to plants/insects.
Cotton plants at the cotyledon stage (one plant per pot) were sprayed by an automated electrostatic plant sprayer equipped with an atomizing spray nozzle. The plants were dried in the sprayer fume hood and then removed from the sprayer. Each pot was placed into a plastic cup and about 10 to 12 whitefly adults (approximately 3-5 days old) were introduced. The insects were collected using an aspirator and a nontoxic Tygon® tubing connected to a barrier pipette tip. The tip, containing the collected insects, was then gently inserted into the soil containing the treated plant, allowing insects to crawl out of the tip to reach the foliage for feeding. Cups were covered with a reusable screened lid. Test plants were maintained in a growth room at about 25° C. and about 20-40% relative humidity for 3 days, avoiding direct exposure to fluorescent light (24 hour photoperiod) to prevent trapping of heat inside the cup. Mortality was assessed 3 days after treatment, compared to untreated control plants.

[10] = 800 ppm, egg and larval mortality visually assessed after 5 days
[11] = 800 ppm, adult aphids on treated aphid diet, 3 days

CC(C)c1ccccc1N1/C(=N/N=C/c2ccc3c(ccc4c3ncn4-c3ccc(OC(F)(F)F)cc3)n2)SCC1(C)O (stereo not drawn) [Compound C-9, (2Z)-3-(2-isopropylphenyl)-4-methyl-2-[(E)-[3-[4-(trifluoromethoxy)phenyl]imidazo[4,5-f]quinolin-7-yl]methylenehydrazono]thiazolidin-4-ol]
≥ 75%: mortality at 800 ppm [1, 10] | mortality at 800 ppm [2] | mortality at 800 ppm [3] | mortality at 800 ppm [4, 11] | mortality at 500 ppm [5] | mortality at 800 ppm [6] | mortality at 500 ppm [7] | mortality at 500 ppm [8] | mortality at 500 ppm [9]

CC(C)c1ccccc1/N=C1\SCC(=O)N1/N=C/c1cnc2c(ccc3c2ncn3-c2ccc(OC(F)(F)F)cc2)c1 [Compound C-16, (2Z)-2-(2-isopropylphenyl)imino-3-[(E)-[3-[4-(trifluoromethoxy)phenyl]imidazo[4,5-h]quinolin-7-yl]methyleneamino]thiazolidin-4-one]
≥ 75%: mortality at 800 ppm [1, 10] | mortality at 800 ppm [2] | mortality at 800 ppm [3] | mortality at 500 ppm [5] | mortality at 800 ppm [6] | mortality at 500 ppm [7] | mortality at 500 ppm [8] | mortality at 500 ppm [9]

Cc1ccc(C(C)C)c(NC(=S)N/N=C/c2ccc3c(ccc4c3ncn4-c3ccc(OC(F)(F)F)cc3)n2)c1 [Compound C-5, 1-(2-isopropyl-5-methyl-phenyl)-3-[(E)-[3-[4-(trifluoromethoxy)phenyl]imidazo[4,5-f]quinolin-7-yl]methyleneamino]thiourea]
≥ 75%: mortality at 800 ppm [1, 10] | mortality at 800 ppm [2] | mortality at 800 ppm [3] | mortality at 800 ppm [4, 11] | mortality at 500 ppm [5] | mortality at 800 ppm [6] | mortality at 500 ppm [7] | mortality at 500 ppm [8]

CC(C)c1ccccc1N1C(=O)CS/C1=N\N=C\c1ccc2c(ccc3c2ncn3-c2ccc(OC(F)(F)F)cc2)n1 [Compound C-4, (2Z)-3-(2-isopropylphenyl)-2-[(E)-[3-[4-(trifluoromethoxy)phenyl]imidazo[4,5-f]quinolin-7-yl]methylenehydrazono]thiazolidin-4-one]
≥ 75%: mortality at 800 ppm [1, 10] | mortality at 800 ppm [2] | mortality at 800 ppm [3] | mortality at 500 ppm [5] | mortality at 800 ppm [6] | mortality at 500 ppm [7] | mortality at 500 ppm [8] | mortality at 500 ppm [9]

Cc1cccc(C)c1N1CCS/C1=N/N=C/c1ccc2c(ccc3c2ncn3-c2ccc(OC(F)(F)F)cc2)n1 [Compound C-30, (E)-3-(2,6-dimethylphenyl)-N-[(E)-[3-[4-(trifluoromethoxy)phenyl]imidazo[4,5-f]quinolin-7-yl]methyleneamino]thiazolidin-2-imine]
≥ 75%: mortality at 800 ppm [1, 10] | mortality at 800 ppm [4, 11] | mortality at 800 ppm [6] | mortality at 500 ppm [8]

CC(OC(=O)Nc1ccc2c(ccc3c2ncn3-c2ccc(OC(F)(F)F)cc2)n1)c1ccc(Cl)cn1 (stereo not drawn) [Compound C-11, 1-(5-chloro-2-pyridyl)ethyl N-[3-[4-(trifluoromethoxy)phenyl]imidazo[4,5-f]quinolin-7-yl]carbamate]
≥ 75%: mortality at 800 ppm [1] | mortality at 800 ppm [2] | mortality at 800 ppm [4]

Cc1cccc(C)c1N1CCCS/C1=N/N=C/c1ccc2c(ccc3c2ncn3-c2ccc(OC(F)(F)F)cc2)n1 [Compound C-23, (E)-3-(2,6-dimethylphenyl)-N-[(E)-[3-[4-(trifluoromethoxy)phenyl]imidazo[4,5-f]quinolin-7-yl]methyleneamino]-1,3-thiazinan-2-imine]
≥ 75%: mortality at 800 ppm [1, 10] | mortality at 800 ppm [2] | mortality at 800 ppm [3] | mortality at 500 ppm [5] | mortality at 800 ppm [6] | mortality at 500 ppm [7] | mortality at 500 ppm [8] | mortality at 500 ppm [9]
